Earlier results, collected in US20090093865A1, “METHOD AND SYSTEM FOR CONTROLLING THE SPREAD OF MICROORGANISMS AMONG SUBJECTS IN A GROUP” (priority 2006, published 2009).

System: methicillin-resistant Staphylococcus aureus
Details: randomized controlled trial of mupirocin versus placebo (Harbarth et al. 1999)

Which “carriers in whom methicillin-resistant S. aureus was successfully eradicated” value does the source give for `C/C(=C\C(=O)OCCCCCCCCC(=O)O)C[C@@H]1OC[C@H](C[C@@H]2O[C@H]2[C@@H](C)[C@H](C)O)[C@@H](O)[C@H]1O` [mupirocin] here?
The value was 44%.
